The source made the active and inactive calls. The calls are words filed in the database; no cut-off is given here.
Experiments:
[1] = Terminal half life in ICR mouse at 10 mg/kg, iv administered as single dose by LC-MS/MS analysis; assay type: ADME, organism-based; settings: in vivo, read-out: beta t1/2 (converted)
[2] = biological target: T1, Tyrosine-protein kinase JAK3 (Homo sapiens, UniProt P52333)
T1 sequence (P52333 whole entry): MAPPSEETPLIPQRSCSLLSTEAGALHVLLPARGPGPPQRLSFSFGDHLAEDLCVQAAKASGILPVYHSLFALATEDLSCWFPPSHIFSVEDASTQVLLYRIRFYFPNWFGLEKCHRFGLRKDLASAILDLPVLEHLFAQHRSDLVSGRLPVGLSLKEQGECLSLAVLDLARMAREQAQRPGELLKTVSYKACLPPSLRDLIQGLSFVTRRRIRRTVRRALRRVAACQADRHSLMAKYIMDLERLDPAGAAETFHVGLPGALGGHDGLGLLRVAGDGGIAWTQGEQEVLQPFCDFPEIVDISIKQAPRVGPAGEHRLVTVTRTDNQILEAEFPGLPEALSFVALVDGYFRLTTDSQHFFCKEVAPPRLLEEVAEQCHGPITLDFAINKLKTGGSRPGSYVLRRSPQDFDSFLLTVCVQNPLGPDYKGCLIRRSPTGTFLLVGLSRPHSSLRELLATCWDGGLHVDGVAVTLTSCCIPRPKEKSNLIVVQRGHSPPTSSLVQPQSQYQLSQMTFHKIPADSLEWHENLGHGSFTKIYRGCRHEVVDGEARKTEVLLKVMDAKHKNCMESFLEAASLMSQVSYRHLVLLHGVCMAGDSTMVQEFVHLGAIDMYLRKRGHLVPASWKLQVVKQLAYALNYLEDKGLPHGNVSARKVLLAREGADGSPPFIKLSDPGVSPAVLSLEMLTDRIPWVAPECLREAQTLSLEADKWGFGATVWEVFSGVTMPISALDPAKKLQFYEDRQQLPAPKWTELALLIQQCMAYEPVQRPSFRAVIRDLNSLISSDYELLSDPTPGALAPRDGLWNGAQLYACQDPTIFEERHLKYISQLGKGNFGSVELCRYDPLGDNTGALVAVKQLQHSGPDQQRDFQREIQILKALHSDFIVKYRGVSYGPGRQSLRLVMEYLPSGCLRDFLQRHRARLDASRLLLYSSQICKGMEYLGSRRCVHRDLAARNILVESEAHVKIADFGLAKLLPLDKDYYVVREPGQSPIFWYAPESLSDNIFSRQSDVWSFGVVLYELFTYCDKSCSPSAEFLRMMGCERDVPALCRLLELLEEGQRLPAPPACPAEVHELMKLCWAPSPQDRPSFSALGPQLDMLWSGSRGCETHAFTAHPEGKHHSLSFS

[3] = biological target: T2, Tyrosine-protein kinase JAK3 (Homo sapiens) (UniProt P52333)
T2 sequence (whole entry): T1 sequence (P52333 whole entry)

Mus musculus = experiment: Immunosuppressive activity in Balb/c mouse model of oxazolone-induced delayed type hypersensitivity assessed as reduction in neutrophil leukocyte infiltration at 30 mg/kg, po measured after 7 days by H and E staining based histopathological analysis; assay type: functional, organism-based; settings: time 7.0 day
[4] = Cmax in ICR mouse at 10 mg/kg, iv administered as single dose by LC-MS/MS analysis; assay type: ADME, organism-based; parameters: route intravenous, dose 10 mg/kg; settings: in vivo
[5] = biological target: Tyrosine-protein kinase JAK1 (Homo sapiens, UniProt P23458); experiment: Inhibition of recombinant human GST-tagged JAK1 cytoplasmic domain (866 to 1154 residues) expressed in baculovirus expression system using TK-substrate-biotin preincubated for 5 mins followed by substrate addition and measured after 30 mins by HTRF assay
[6] = Terminal half life in ICR mouse at 30 mg/kg, po administered as single dose via gavage by LC-MS/MS analysis; assay type: ADME, organism-based; settings: in vivo, read-out: beta t1/2 (converted)
[7] = biological target: T3, Tyrosine-protein kinase JAK3 (Mus musculus) (UniProt Q62137); experiment: Inhibition of JAK3 in anti-CD3/-CD28 coated mouse T cells assessed as reduction in IL15-induced STAT5 phosphorylation preincubated for 1 hr followed by […] and measured after 30 mins by Western blot analysis; settings: T cell
T3 sequence (whole entry): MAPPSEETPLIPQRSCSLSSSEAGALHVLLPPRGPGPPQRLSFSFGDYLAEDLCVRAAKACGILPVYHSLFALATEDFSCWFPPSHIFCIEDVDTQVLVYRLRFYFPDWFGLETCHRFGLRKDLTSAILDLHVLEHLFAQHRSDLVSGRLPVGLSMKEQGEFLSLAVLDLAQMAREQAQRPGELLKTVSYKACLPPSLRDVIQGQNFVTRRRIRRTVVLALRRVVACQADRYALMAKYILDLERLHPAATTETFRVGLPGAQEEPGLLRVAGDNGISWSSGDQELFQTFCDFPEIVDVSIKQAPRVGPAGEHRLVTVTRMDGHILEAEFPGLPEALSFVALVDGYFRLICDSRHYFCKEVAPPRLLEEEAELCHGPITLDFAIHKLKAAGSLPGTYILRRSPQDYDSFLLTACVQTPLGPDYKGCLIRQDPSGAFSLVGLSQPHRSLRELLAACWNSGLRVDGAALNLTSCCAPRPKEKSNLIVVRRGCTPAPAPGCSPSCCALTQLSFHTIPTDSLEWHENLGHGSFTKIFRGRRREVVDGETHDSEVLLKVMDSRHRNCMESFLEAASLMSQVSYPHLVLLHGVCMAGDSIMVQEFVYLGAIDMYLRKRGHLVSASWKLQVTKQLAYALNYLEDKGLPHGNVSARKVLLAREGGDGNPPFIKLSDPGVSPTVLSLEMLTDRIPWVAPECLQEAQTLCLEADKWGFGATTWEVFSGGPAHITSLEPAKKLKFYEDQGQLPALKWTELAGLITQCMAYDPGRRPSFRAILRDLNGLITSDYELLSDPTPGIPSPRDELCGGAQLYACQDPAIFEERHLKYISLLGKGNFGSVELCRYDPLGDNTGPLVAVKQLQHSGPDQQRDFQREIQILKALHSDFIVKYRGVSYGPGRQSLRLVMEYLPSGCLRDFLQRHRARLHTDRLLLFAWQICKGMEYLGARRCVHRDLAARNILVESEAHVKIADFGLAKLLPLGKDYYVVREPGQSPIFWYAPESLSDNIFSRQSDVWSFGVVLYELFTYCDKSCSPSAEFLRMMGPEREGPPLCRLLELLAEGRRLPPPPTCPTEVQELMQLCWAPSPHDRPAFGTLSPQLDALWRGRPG

[8] = biological target: T3, Tyrosine-protein kinase JAK3 (Mus musculus); experiment: Inhibition of JAK3 in anti-CD3/-CD28 coated mouse T cells assessed as reduction in IL15-induced STAT5 phosphorylation at 10 uM preincubated for 1 hr followed by […] and measured after 30 mins by Western blot analysis; settings: T cell
[9] = biological target: Non-receptor tyrosine-protein kinase TYK2 (Homo sapiens, UniProt P29597); experiment: Inhibition of recombinant human N-terminal GST-tagged TYK2 cytoplasmic domain (833 to 1187 residues) expressed in baculovirus expression system using TK-substrate-biotin preincubated for 5 mins followed by substrate addition and measured after 30 mins by HTRF assay
Chain of Non-receptor tyrosine-protein kinase TYK2 (P29597 whole entry, the tested form may be a part): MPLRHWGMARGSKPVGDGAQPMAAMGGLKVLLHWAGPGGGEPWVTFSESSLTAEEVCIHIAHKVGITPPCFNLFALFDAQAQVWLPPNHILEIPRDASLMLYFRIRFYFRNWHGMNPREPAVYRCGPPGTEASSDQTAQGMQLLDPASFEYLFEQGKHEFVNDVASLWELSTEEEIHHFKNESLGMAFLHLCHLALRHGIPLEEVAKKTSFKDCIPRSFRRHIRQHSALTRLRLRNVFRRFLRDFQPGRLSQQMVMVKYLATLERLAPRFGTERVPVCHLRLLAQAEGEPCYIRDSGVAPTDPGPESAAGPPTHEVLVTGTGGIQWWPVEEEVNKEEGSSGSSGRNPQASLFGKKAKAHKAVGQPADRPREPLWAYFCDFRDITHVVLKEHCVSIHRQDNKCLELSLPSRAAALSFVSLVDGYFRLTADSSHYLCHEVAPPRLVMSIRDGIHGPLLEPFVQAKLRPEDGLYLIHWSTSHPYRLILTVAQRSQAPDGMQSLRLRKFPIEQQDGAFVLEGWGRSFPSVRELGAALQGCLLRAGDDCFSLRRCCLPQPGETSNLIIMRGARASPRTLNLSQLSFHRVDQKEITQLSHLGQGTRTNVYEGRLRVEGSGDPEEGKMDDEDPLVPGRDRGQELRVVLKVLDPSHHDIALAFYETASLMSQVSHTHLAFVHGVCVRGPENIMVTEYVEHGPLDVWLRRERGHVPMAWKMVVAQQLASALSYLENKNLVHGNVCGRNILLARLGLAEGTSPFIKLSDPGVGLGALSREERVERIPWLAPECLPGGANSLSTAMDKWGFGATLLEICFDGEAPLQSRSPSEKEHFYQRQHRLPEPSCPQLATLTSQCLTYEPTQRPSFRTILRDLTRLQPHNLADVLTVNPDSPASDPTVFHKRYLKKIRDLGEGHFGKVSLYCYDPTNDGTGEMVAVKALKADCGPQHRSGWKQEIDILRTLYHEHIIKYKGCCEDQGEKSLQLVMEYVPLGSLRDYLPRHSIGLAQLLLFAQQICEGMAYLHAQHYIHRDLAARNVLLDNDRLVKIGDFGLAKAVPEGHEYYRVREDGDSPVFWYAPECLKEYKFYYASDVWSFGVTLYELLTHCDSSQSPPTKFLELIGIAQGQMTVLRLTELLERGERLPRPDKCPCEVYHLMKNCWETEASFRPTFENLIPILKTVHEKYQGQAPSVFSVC

Chain of Tyrosine-protein kinase JAK1 (P23458 whole entry, the tested form may be a part): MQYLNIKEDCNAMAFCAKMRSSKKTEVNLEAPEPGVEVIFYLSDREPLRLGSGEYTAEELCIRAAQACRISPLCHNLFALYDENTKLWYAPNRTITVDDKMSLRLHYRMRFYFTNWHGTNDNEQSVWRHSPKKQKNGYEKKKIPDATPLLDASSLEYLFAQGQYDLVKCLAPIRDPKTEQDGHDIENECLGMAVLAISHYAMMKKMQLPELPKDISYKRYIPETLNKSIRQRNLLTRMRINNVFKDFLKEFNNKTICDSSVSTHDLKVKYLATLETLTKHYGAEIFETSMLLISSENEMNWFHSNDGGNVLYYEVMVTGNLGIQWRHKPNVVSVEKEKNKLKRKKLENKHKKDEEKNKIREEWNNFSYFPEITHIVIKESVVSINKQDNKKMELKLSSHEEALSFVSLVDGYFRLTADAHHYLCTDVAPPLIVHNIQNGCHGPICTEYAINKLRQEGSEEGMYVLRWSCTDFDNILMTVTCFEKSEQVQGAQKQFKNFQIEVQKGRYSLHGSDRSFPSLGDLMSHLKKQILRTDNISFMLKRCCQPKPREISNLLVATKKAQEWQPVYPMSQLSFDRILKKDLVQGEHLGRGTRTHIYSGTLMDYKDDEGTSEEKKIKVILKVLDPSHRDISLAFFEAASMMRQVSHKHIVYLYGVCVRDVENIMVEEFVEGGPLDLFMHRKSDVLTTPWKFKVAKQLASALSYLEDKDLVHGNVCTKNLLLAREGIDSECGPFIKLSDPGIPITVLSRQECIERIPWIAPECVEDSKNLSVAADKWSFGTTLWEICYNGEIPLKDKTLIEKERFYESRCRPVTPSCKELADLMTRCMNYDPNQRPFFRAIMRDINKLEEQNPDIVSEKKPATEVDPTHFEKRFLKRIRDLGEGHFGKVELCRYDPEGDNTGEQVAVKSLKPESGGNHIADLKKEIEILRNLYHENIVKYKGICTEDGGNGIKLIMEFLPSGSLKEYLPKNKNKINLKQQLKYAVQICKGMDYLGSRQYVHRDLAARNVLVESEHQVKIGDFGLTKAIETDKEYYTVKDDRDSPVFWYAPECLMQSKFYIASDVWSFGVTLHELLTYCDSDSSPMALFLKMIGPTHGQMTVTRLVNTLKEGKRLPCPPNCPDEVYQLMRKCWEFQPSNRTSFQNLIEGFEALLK

half-life [1]: 28.2 min
IC50 [2]: 0.0017 µM
TDI [3]: Active
Cmax [4]: 8760 ng/mL
IC50 [5]: 1.32 µM
half-life [6]: 91.2 min
inhibition [7]: Dose-dependent effect
inhibition [8]: Active
IC50 [9]: 2.78 µM
Structure (SMILES): C=CC(=O)Nc1ccc(-c2ccnc(Nc3ccc(N4CCOCC4)cc3)n2)cc1
Activity (Mus musculus): Active

From ChEMBL document CHEMBL4680201, “Design, synthesis, and pharmacological evaluation of 4- or 6-phenyl-pyrimidine derivatives as novel and selective Janus kinase 3 inhibitors” (Eur J Med Chem, 2020)
